Read-outs that look alike come from different tables or passages of the source.
How the values were obtained:
[1] = Description: Female, athymic nude mice (aged 6-8 weeks) were randomized to one of 12 study arms (n=3 per arm) (Table 16) and weighed prior to dosing. Mice were dosed via oral gavage either once daily (QD), or bi-daily (BID) for five days. […] The vehicle for PF-06952229 (PF) was 10% DMSO, 40% PEG300, 5% tween-80, 45% saline. For the vehicle alone group in this study, the PF-06952229 vehicle was used. At the end of each day for 10 days, mice were weighed, and symptoms of toxicity (if present) were recorded. A qualitative determination of overall toxicity was made based on the number and severity of symptoms for each cohort. The safety margin was determined at the end of day 10 based on the following equation: (maximum tolerated dose)/(minimum effective dose).
[2] = tested on: TGF-beta induced SMAD signaling; experiment: RDSR (RD SMAD reporter) Cellular Reporter Assay; type: cell-based; settings: Homo sapiens; 200 pg/ml rhTGF-beta1, 24 h; control compounds; read-out: RDSR reporter activity
Summary of the method: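 Human rhabdomyosarcoma RD cells stably carrying an SBE-driven luc2P luciferase reporter. Inhibition of SMAD signaling was quantified from ONE-Glo luminescence.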

[3] = tested on: TGF-β1 mediated alpha-SMA expression in primary human bronchial fibroblasts derived from IPF patients; experiment: Fibroblast to Myofibroblast Transformation (FMT) assay
Description: To test the ability of compounds of the invention to inhibit the TGF-β1 dependent transition of fibroblasts to myofibroblasts in a relevant disease model of IPF, a study was carried out using an FMT assay employing lung fibroblasts from IPF patients. In this model the transition of fibroblasts to myofibroblasts is determined by the expression of the biomarker alpha smooth muscle actin (SMA).
Each drug concentration condition was evaluated in biological duplicates. One hour after compound addition, cells were stimulated with 1.25 ng/ml of TGF-01 and cultured for 72 hours thereafter. At the end of 72 hours cells were fixed using formaldehyde. The results were generated using high content imaging after staining cells using the nuclear stain DAPI as well as evaluation of the expression of alpha SMA. […] As a negative control 0.1% DMSO was used matching the DMSO concentration in treated wells.

[4] = BID; in animal studies; cited from earlier work
[5] = tested on: bleomycin-induced lung fibrosis; experiment: Bleomycin-induced lung fibrosis study; type: in vivo, mouse
Source text: Fibrosis, the formation of excess connective tissue causing stromal hardening and scar formation is a hallmark of cancer. Up to 20% of cancers are linked to chronic, inflammation-related fibrosis, including hepatocellular, gastric, esophageal, head and neck, colon, pancreatic, cervix, and vulvar cancers. The contribution of fibrosis for early cancer development remains unclear; however, in some advanced solid tumors it is believed that fibrotic tissues act like a barrier, preventing therapeutic agents like chemotherapy or biologics from penetrating the tumor tissue. Additionally, strong fibrotic tissue is thought to contribute to excluding immune cells from entering the tumor core, creating immune excluded or immune desert phenotypes. To evaluate the anti-fibrotic properties of Ex-11, a prophylactic model of bleomycin-induced lung fibrosis in male C57BL/6 mice was utilized, and various endpoints evaluated.
All mice in this study were 8-week-old male C57BL/6 mice purchased from Taconic. On Day −2 prior to bleomycin administration, all animals were weighed and distributed into groups with 10 mice each (Table 18) such that each group of animals contained animals of similar body weights.
On day 0, animals were treated with 1.5 U/kg bleomycin (Blenoxane catalog number NDC 61703-323-22, Hospira Pharmaceutical) intratracheally, except Group 1, which was administered normal saline via oropharyngeal route to serve as the healthy naïve control group. Prophylactic treatment was administered from one day prior to bleomycin administration to day 21 post bleomycin administration. On Day 21, only the morning dose was administered. Animals were harvested on day 21 and lung weights were measured. Body weights of all mice was recorded at least three times a week beginning on Day −2 and ending on the day of harvest, Day 21. Pirfenidone was used as positive control compound, as it is an FDA-approved drug for the treatment of idiopathic pulmonary fibrosis (IPF) in humans. All compounds were prepared in 10% Tween-20 in water; a homogenous suspension was formulated using a magnetic stir bar.
At the end of the study, total lung tissues were weighed and fixed for histological examination, which was conducted by a trained pathologist blinded to the treatment groups. Specifically, whole lungs from each mouse were paraffin-embedded in a single block. Two slides from each block were sectioned to the depth of the mainstem bronchi (near the center of each lobe) and stained with either hematoxylin and eosin (H&E) or Masson's trichrome (MT). Glass slides were evaluated using light microscopy by a board-certified veterinary pathologist. Lung sections were scored according to the methods described below, evaluating five randomly chosen fields in each tissue. Fixed lungs were sectioned, and consecutive tissue sections were stained with H&E or MT. Various pathological scoring parameters were used to determine the average Ashcroft score, as well as average inflammation and collagen deposition indicating fibrosis.
Parameter of scoring formalin fixed lung sections:
Modified Ashcroft Score: H&E-stained lung sections were scored according to the modified Ashcroft scale. Scores for five representative 200× microscopic fields per sample were averaged to obtain a mean score for each animal. […]

KGN cells = experiment: TGFβ induced proliferation, KGN; type: cell-based, human; settings: TGFβ 1 ng/mL, 6 days, KGN (FoxL2 mutant)
Description: (§1) KGN and COV434 cells were seeded in triplicate in 96 well culture plates and incubated in the presence or absence of TGFβ (1 ng/mL) for 6 or 7 days, respectively. Proliferation was measured by Cell Titer Glo.

COV434 cells = experiment: TGFβ induced proliferation, COV434; type: cell-based, human; settings: TGFβ 1 ng/mL, 7 days, COV434 (FoxL2 wild-type)
Description: as §1

Compound: Cc1cccc(-c2[nH]c(CNc3ccccc3F)nc2-c2ccc3ncnn3c2)n1 [Vactosertib, reference compound]
- safety margin (maximum tolerated dose)/(minimum effective dose) ([1]; female, mouse, in vivo, 10 days): 3.75-6 fold
- IC50 [2]: ~7.9 nM
- LogM IC50 αSMA ([3]; donor IPF05): −7.4 LogM
- Max PIN (%) ([3]; donor IPF05): 32.7%
- LogM IC50 αSMA ([3]; donor IPF06): −7.0 LogM
- Max PIN (%) ([3]; donor IPF06): 112.1%
- LogM IC50 αSMA ([3]; donor IPF08): −7.1 LogM
- Max PIN (%) ([3]; donor IPF08): 104.0%

Compound: CC(C)c1cnc(-c2cc(Cl)ccc2F)cc1Nc1ccncc1C(=O)NC(CO)CO [PF-06952229]
- tolerated dose ([1]; BID): 50 mg/kg
- dose at which mice experienced DLT ([1]; mouse, in vivo): ≥ 150 mg/kg
- safety margin (maximum tolerated dose)/(minimum effective dose) ([1]; mouse, in vivo): ~1.7 fold
- minimum effective dose [4]: 30 mg/kg

Compound: Cc1ccc(=O)n(-c2ccccc2)c1 [pirfenidone, reference compound]
- animals lost during the study ([5]; 100 mg/kg PO BID): Only one animal in the pirfenidone group was lost
- total lung weight ([5]; day 21, vs bleomycin/vehicle): significant decrease in lung weight
- largest percent change in weight ([5]; group 4, day 9, average): −1.2%

Compound: TGFβ: TGFβ cytokine used at 1 ng/mL to stimulate KGN and COV434 cells
- proliferation (Cell Titer Glo) (KGN cells): significantly increased
- proliferation (Cell Titer Glo) (COV434 cells): no change
